In US20250360161A1, “CHEMICALLY MODIFIED HEPARIN” (IHP Therapeutics Inc., priority 2022, published 2025):

Columns and labels:
[1] = test system: BxPC3 human pancreatic cancer cells; experiment: Pancreatic cancer BxPC3 subcutaneous model, tumor volume; assay type: in vivo, nude mice; details: day 70; gemcitabine 100 mg/kg i.p. q3 day; Compounds A, B 5 mg/kg s.c. bid, 10 mg/kg from day 56
Method: A study was conducted to evaluate the anti-cancer activity of Compound A and Compound B in a mouse model of pancreatic cancer. Human pancreatic cancer cells, BxPC3, were implanted subcutaneously (1×10^6 cells in 100 μL Matrigel) in 6 week old female nude mice (5 mice per group). Treatment began on day 7 after implantation, with either gemcitabine (100 mg/kg i.p. q3 day), Compound A (5 mg/kg s.c. bid), or Compound B (5 mg/kg s.c. bid). Tumor volume was measured with calipers each week. On day 56 the dose of both Compound A and B were increased to 10 mg/kg s.c. bid. At day 70 animals were sacrificed and tumors resected, fixed, and stored for further testing.

P-selectin = experiment: P-selectin-mediated HL-60 cell binding to immobilized P-selectin/Fc chimera; assay type: cell-based; details: HL-60 cells, best-fit values
Method: 96 well plates were coated with 10 μg/mL Protein A overnight, then blocked with 2% FBS for 1 hour. 2 μg/mL P-selectin/Fc chimera was bound to the Protein A for 3 hours at 4° C. HL-60 cells (2e5 cells/well, CMFDA labeled) were then layered onto the P-selectin and allowed to bind for 1 hour at room temperature. Wells were treated concurrently with test samples to determine inhibitory binding activity. After 1 hour, unbound cells were washed and bound cells lysed in a 1% Triton-X solution and read on a Fluorimeter at 480/520 nm.

Compound	reduction of tumor volume [1]	P-sel IC50 (P-selectin) [µg/mL]
Nc1ccn([C@@H]2O[C@H](CO)[C@@H](O)C2(F)F)c(=O)n1 [Gemcitabine, gemcitabine]	approximately 58%	
enoxaparin		64.72
